A word on the efflux ratio: it is the permeability from basolateral to apical divided by that in the opposite direction, in the common usage. A word on the pEC50: it is the negative decadic logarithm of the EC50, by convention in mol/L. In general, fraction unbound refers to free concentration divided by total concentration. For orientation: Kp means the ratio of the level in a tissue or fluid to that in plasma or blood. As a reminder, the Papp is a coefficient for how fast a substance crosses the barrier.

The structures appear in SMILES notation. Residue numbers refer to the chain shown, from its start. pEC50: −log10 of the molar value.

For series [1], the system named is P-gp. Kind of series: Substrate activity at P-gp (unknown origin) assessed as efflux ratio of permeability. The format is ADME. The conditions noted are these: human, not told.
For series [2], the target named is Muscarinic acetylcholine receptor M3 (Homo sapiens, UniProt P20309). In words: Positive allosteric modulation of human M3 receptor expressed in CHO cells assessed as increase in acetylcholine-induced calcium mobilization pretreated for 2.5 mins followed by acetylcholine addition and measured after 1 min by Fluo-4-AM dye based assay. The class given is functional, cell-based. (In general: A change in cytosolic calcium serves as a functional read-out for many receptors and channels.)
Sequence of Muscarinic acetylcholine receptor M3 (P20309 whole entry): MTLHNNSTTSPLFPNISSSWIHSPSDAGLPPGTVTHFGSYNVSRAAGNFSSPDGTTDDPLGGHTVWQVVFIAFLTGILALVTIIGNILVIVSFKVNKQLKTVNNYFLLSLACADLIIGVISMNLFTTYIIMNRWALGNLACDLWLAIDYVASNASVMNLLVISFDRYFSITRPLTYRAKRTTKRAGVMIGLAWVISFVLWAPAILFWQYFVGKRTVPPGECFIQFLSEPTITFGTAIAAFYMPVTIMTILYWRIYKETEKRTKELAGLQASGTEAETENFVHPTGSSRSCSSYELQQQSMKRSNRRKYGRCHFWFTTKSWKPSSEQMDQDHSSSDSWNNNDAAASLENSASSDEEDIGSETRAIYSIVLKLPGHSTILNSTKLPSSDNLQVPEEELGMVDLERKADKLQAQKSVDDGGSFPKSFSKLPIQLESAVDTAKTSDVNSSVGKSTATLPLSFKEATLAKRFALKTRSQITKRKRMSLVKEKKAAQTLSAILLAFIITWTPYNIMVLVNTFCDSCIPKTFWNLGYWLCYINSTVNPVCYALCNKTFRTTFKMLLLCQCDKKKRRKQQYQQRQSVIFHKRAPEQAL

The target in series [3] is T1, Muscarinic acetylcholine receptor M1 (Homo sapiens) (UniProt P11229).
T1 sequence (whole entry): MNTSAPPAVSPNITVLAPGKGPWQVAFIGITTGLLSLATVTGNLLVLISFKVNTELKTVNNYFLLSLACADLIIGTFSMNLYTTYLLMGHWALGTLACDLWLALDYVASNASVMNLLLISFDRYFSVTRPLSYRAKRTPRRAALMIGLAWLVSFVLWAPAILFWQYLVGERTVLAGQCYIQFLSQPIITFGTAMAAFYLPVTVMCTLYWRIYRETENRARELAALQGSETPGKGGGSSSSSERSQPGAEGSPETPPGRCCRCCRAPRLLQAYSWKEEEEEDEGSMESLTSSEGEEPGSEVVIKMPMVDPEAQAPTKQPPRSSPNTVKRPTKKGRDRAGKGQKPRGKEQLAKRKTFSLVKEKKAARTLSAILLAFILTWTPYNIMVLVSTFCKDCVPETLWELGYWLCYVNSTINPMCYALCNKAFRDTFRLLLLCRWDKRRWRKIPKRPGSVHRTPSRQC
Kind of series: (§1) Positive allosteric modulation of human M1 receptor expressed in CHO cells assessed as increase in acetylcholine-induced calcium mobilization pretreated for 2.5 mins followed by acetylcholine addition and measured after 1 min by Fluo-4-AM dye based assay. The format is functional, cell-based.

Series [4] addresses T2, Muscarinic acetylcholine receptor M1 (Homo sapiens, UniProt P11229).
T2 sequence (P11229 whole entry): T1 sequence (whole entry)
Described as §1. The class given is functional, cell-based.

In series [5] the target is T3, Muscarinic acetylcholine receptor M1 (Rattus norvegicus, UniProt P08482).
T3 sequence (P08482 whole entry): T1 sequence (whole entry) with A5V, T254S, P309S, R320K, A337G, I413V
Kind of series: Agonist activity at rat M1 receptor expressed in CHO cells assessed as increase in calcium mobilization measured after 2.5 mins by Fluo-4-AM dye based assay. The format is functional, cell-based.

Series [6] can be described thus: Protein binding in rat brain assessed as unbound fraction. The class given is ADME, tissue-based.
The nature of series [7]: Protein binding in rat plasma assessed as unbound fraction at 5 uL measured after 4 hrs by LC-MS/MS based equilibrium dialysis method. The format is ADME, cell-free.
Series [8] addresses T2, Muscarinic acetylcholine receptor M1. In words: Agonist activity at human M1 receptor expressed in CHO cells assessed as increase in calcium mobilization measured after 2.5 mins by Fluo-4-AM dye based assay. The format is functional, cell-based.
Series [9] can be described thus: Total brain to plasma partition coefficient, Kp in cannulated Sprague-Dawley rat at 0.2 mg/kg, iv administered via jugular vein as cassette dose measured after 0.25 hrs by LC-MS/MS analysis. The format is ADME, organism-based. The conditions noted are these: Sprague-Dawley, brain and plasma.
Series [10] deals with T4, Muscarinic acetylcholine receptor M4 (Homo sapiens, UniProt P08173).
T4 sequence (P08173 whole entry): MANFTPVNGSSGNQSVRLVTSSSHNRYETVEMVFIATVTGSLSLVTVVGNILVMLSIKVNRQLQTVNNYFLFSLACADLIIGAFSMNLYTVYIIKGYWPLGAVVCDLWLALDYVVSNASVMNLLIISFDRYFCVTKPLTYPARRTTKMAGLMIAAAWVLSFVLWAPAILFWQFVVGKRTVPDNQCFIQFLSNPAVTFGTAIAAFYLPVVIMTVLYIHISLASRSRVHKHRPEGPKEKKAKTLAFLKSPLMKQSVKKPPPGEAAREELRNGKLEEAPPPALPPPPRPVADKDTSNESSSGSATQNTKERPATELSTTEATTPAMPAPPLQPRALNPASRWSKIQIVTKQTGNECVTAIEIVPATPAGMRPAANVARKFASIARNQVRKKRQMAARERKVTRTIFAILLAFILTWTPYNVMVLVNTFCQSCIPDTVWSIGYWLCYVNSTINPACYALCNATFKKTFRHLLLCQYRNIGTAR
In words: Positive allosteric modulation of human M4 receptor expressed in CHO cells co-expressing Gqi5 assessed as increase in acetylcholine-induced calcium mobilization pretreated for 2.5 mins followed by acetylcholine addition and measured after 1 min by Fluo-4-AM dye based assay. The format is functional, cell-based.

Series [11] in a line: Ratio of unbound brain to plasma concentration in C57BL/6J mouse at 100 mg/kg, ip after 1 hr by LC-MS/MS analysis. The format is ADME, organism-based. The conditions noted are these: brain and plasma, read-out: K(p,uu,brain).
The target in series [12] is T5, Muscarinic acetylcholine receptor M5 (Homo sapiens, UniProt P08912).
T5 sequence (P08912 whole entry): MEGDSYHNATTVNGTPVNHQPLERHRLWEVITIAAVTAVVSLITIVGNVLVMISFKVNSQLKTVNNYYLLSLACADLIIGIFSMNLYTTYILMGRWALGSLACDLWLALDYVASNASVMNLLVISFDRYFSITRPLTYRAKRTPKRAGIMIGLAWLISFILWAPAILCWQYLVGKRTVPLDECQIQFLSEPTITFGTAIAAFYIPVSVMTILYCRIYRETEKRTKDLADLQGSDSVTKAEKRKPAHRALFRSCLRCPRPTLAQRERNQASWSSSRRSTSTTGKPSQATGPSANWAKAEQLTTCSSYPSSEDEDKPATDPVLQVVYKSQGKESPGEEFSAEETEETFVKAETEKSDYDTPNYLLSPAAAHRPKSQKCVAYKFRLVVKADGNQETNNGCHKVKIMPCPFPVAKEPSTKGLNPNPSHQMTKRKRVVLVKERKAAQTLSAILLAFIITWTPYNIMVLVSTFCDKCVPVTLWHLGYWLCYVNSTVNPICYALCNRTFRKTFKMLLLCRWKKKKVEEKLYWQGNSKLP
Kind of series: Positive allosteric modulation of human M5 receptor expressed in CHO cells assessed as increase in acetylcholine-induced calcium mobilization pretreated for 2.5 mins followed by acetylcholine addition and measured after 1 min by Fluo-4-AM dye based assay. The class given is functional, cell-based.

Series [13] is described as follows: Total brain to plasma partition coefficient, Kp in C57BL/6J mouse at 100 mg/kg, ip after 1 hr by LC-MS/MS analysis. The class given is ADME, organism-based. The conditions noted are these: brain and plasma.
In series [14] the test system is P-gp. In words: Substrate activity at P-gp (unknown origin) assessed as apparent permeability. The conditions noted are these: human, not told. The format is ADME.

In the case of `Cn1cc(-c2ccc(Cc3cc(C(=O)NC4CCOCC4)nc4c3ccn4C)cn2)cn1`, the efflux ratio in the series with P-gp [1] came to 4.5. In addition, the pEC50 in series [2] is below 4.52; in [4], 6.49; in series [5] (cho, read-out: EC50) it was below 5.00; in series [8], 6.49; in [10], below 4.52; in series [12], below 4.52. Moreover, in [3], the %max came to 84%. Also, the EC50 in [5] (read-out: pEC50 (converted)) is above 10 µM. Besides, the fraction unbound in series [6] came to 0.08. The fraction unbound at 4 h, 5 uL in series [7] was 0.06. Further, in series [9], the Kp at 0.25 h is 0.28. Further, the Kp uu at 1 h in series [11] is 0.18. In series [13], this compound displayed a Kp at 1 h of 0.16. Moreover, the Papp in the series with P-gp [14] was determined as 12 ×10⁻⁶ cm/s.
